Assay results reported in the supplement of paper PMC10307832.

What was measured:
Test in all cases: relative viability (nuclei count vs DMSO), 5 days (fraction); higher = more cells survive
[1] = test system: EBC-1
Outline: (§1)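 Relative viability equals treated-well nuclei counts divided by vehicle-well nuclei counts. Counts came from 4× images of lung cancer cell lines grown in 1536-well plates for 5 days after pin-tool dosing on the day after seeding. Dosing used one drug alone or a fixed anchor-drug dose plus five library-drug doses (not always all listed) in √10 steps, and values are medians of duplicate plates.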

[2] = test system: HCC-366
Outline: as §1

[3] = test system: NCI-H1703
Outline: as §1

[4] = test system: LXF-289
Outline: as §1

[5] = test system: A549
Outline: as §1

[6] = test system: HCC-44
Outline: as §1

[7] = test system: LOU-NH91
Outline: as §1

[8] = test system: NCI-H3122
Outline: as §1

[9] = test system: NCI-H1299
Outline: as §1

[10] = test system: NCI-H2085
Outline: as §1

[11] = test system: IA-LM
Outline: as §1

[12] = test system: Calu-6
Outline: as §1

[13] = test system: NCI-H1437
Outline: as §1

For `CC(=O)O[C@@]12CO[C@@H]1C[C@H](O)[C@@]1(C)C(=O)[C@H](O)C3=C(C)[C@@H](OC(=O)[C@H](O)[C@@H](NC(=O)OC(C)(C)C)c4ccccc4)C[C@@](O)([C@@H](OC(=O)c4ccccc4)[C@H]21)C3(C)C` [Docetaxel] + CS(=O)(=O)CCNCc1ccc(-c2ccc3ncnc(Nc4ccc(OCc5cccc(F)c5)c(Cl)c4)c3c2)o1 [Lapatinib] (partner 2 µM), the relative viability ([1]; first compound 0.0002 µM) was 0.201, the relative viability ([1]; first compound 0.000632 µM) was 0.227 and the relative viability ([1]; first compound 0.002 µM) was 0.228. For the same molecule, the relative viability ([1]; first compound 0.006325 µM) was 0.197, the relative viability ([1]; first compound 0.02 µM) was 0.195 and the relative viability ([2]; first compound 0.0002 µM) was 0.938. It also gave a relative viability ([2]; first compound 0.000632 µM) of 0.054, a relative viability ([2]; first compound 0.002 µM) of 0.0282 and a relative viability ([2]; first compound 0.006325 µM) of 0.0194. It also gave a relative viability ([2]; first compound 0.02 µM) of 0.011, a relative viability ([3]; first compound 0.0002 µM) of 1.1 and a relative viability ([3]; first compound 0.000632 µM) of 0.664. It also gave a relative viability ([3]; first compound 0.002 µM) of 0.219, a relative viability ([3]; first compound 0.006325 µM) of 0.157 and a relative viability ([3]; first compound 0.02 µM) of 0.148. The relative viability ([4]; first compound 0.0002 µM) was 0.926, the relative viability ([4]; first compound 0.000632 µM) was 0.847 and the relative viability ([4]; first compound 0.002 µM) was 0.393. For the same molecule, the relative viability ([4]; first compound 0.006325 µM) was 0.137, the relative viability ([4]; first compound 0.02 µM) was 0.109 and the relative viability ([5]; first compound 0.0002 µM) was 0.972. For the same molecule, the relative viability ([5]; first compound 0.002 µM) was 0.0898, the relative viability ([5]; first compound 0.006325 µM) was 0.0769 and the relative viability ([5]; first compound 0.02 µM) was 0.0547. For the same molecule, the relative viability ([6]; first compound 0.0002 µM) was 0.936, the relative viability ([6]; first compound 0.000632 µM) was 0.961 and the relative viability ([6]; first compound 0.002 µM) was 0.621. The relative viability ([6]; first compound 0.006325 µM) was 0.22, the relative viability ([6]; first compound 0.02 µM) was 0.115 and the relative viability ([7]; first compound 0.0002 µM) was 0.715. For the same molecule, the relative viability ([7]; first compound 0.000632 µM) was 0.589, the relative viability ([7]; first compound 0.002 µM) was 0.462 and the relative viability ([7]; first compound 0.006325 µM) was 0.361. The relative viability ([7]; first compound 0.02 µM) was 0.351, the relative viability ([8]; first compound 0.0002 µM) was 0.979 and the relative viability ([8]; first compound 0.000632 µM) was 0.977. For the same molecule, the relative viability ([8]; first compound 0.002 µM) was 0.942, the relative viability ([8]; first compound 0.006325 µM) was 0.296 and the relative viability ([8]; first compound 0.02 µM) was 0.242. It also gave a relative viability ([9]; first compound 0.0002 µM) of 0.935, a relative viability ([9]; first compound 0.000632 µM) of 0.968 and a relative viability ([9]; first compound 0.002 µM) of 0.704. The relative viability ([9]; first compound 0.006325 µM) was 0.467, the relative viability ([9]; first compound 0.02 µM) was 0.298 and the relative viability ([10]; first compound 0.0002 µM) was 0.787. The relative viability ([10]; first compound 0.000632 µM) was 0.71, the relative viability ([10]; first compound 0.002 µM) was 0.507 and the relative viability ([10]; first compound 0.006325 µM) was 0.462. The relative viability ([10]; first compound 0.02 µM) was 0.342, the relative viability ([11]; first compound 0.0002 µM) was 0.46 and the relative viability ([11]; first compound 0.000632 µM) was 0.153. It also gave a relative viability ([11]; first compound 0.002 µM) of 0.0797, a relative viability ([11]; first compound 0.006325 µM) of 0.069 and a relative viability ([11]; first compound 0.02 µM) of 0.068. The relative viability ([12]; first compound 0.0002 µM) was 0.982, the relative viability ([12]; first compound 0.000632 µM) was 0.879 and the relative viability ([12]; first compound 0.002 µM) was 0.286. For the same molecule, the relative viability ([12]; first compound 0.006325 µM) was 0.125, the relative viability ([12]; first compound 0.02 µM) was 0.112 and the relative viability ([13]; first compound 0.0002 µM) was 0.663. The relative viability ([13]; first compound 0.000632 µM) was 0.508, the relative viability ([13]; first compound 0.002 µM) was 0.185 and the relative viability ([13]; first compound 0.006325 µM) was 0.12. For the same molecule, the relative viability ([13]; first compound 0.02 µM) was 0.089.

`CC(=O)O[C@@]12CO[C@@H]1C[C@H](O)[C@@]1(C)C(=O)[C@H](O)C3=C(C)[C@@H](OC(=O)[C@H](O)[C@@H](NC(=O)OC(C)(C)C)c4ccccc4)C[C@@](O)([C@@H](OC(=O)c4ccccc4)[C@H]21)C3(C)C` [Docetaxel] + CS(=O)(=O)N1CCN(Cc2cc3nc(-c4cccc5[nH]ncc45)nc(N4CCOCC4)c3s2)CC1 [Pictilisib] (partner 1 µM) gave a relative viability ([1]; first compound 0.0002 µM) of 0.347, a relative viability ([1]; first compound 0.000632 µM) of 0.267 and a relative viability ([1]; first compound 0.002 µM) of 0.189. It also gave a relative viability ([1]; first compound 0.006325 µM) of 0.164, a relative viability ([2]; first compound 0.0002 µM) of 0.0877 and a relative viability ([2]; first compound 0.002 µM) of 0.0735. It also gave a relative viability ([2]; first compound 0.006325 µM) of 0.0362, a relative viability ([2]; first compound 0.02 µM) of 0.0228 and a relative viability ([3]; first compound 0.0002 µM) of 0.235. It also gave a relative viability ([3]; first compound 0.000632 µM) of 0.26, a relative viability ([3]; first compound 0.002 µM) of 0.2 and a relative viability ([3]; first compound 0.006325 µM) of 0.161. The relative viability ([3]; first compound 0.02 µM) was 0.136, the relative viability ([4]; first compound 0.0002 µM) was 0.815 and the relative viability ([4]; first compound 0.000632 µM) was 0.653. It also gave a relative viability ([4]; first compound 0.002 µM) of 0.212, a relative viability ([4]; first compound 0.006325 µM) of 0.114 and a relative viability ([4]; first compound 0.02 µM) of 0.0576. For the same molecule, the relative viability ([5]; first compound 0.0002 µM) was 0.44, the relative viability ([5]; first compound 0.000632 µM) was 0.22 and the relative viability ([5]; first compound 0.002 µM) was 0.0741. It also gave a relative viability ([5]; first compound 0.006325 µM) of 0.0602, a relative viability ([5]; first compound 0.02 µM) of 0.035 and a relative viability ([6]; first compound 0.0002 µM) of 0.406. The relative viability ([6]; first compound 0.000632 µM) was 0.44, the relative viability ([6]; first compound 0.002 µM) was 0.421 and the relative viability ([6]; first compound 0.006325 µM) was 0.144. The relative viability ([6]; first compound 0.02 µM) was 0.0949, the relative viability ([7]; first compound 0.0002 µM) was 0.524 and the relative viability ([7]; first compound 0.000632 µM) was 0.491. For the same molecule, the relative viability ([7]; first compound 0.002 µM) was 0.38, the relative viability ([7]; first compound 0.006325 µM) was 0.318 and the relative viability ([7]; first compound 0.02 µM) was 0.339. It also gave a relative viability ([8]; first compound 0.0002 µM) of 0.567, a relative viability ([8]; first compound 0.000632 µM) of 0.577 and a relative viability ([8]; first compound 0.002 µM) of 0.396. It also gave a relative viability ([8]; first compound 0.006325 µM) of 0.217, a relative viability ([8]; first compound 0.02 µM) of 0.172 and a relative viability ([9]; first compound 0.0002 µM) of 0.761. For the same molecule, the relative viability ([9]; first compound 0.000632 µM) was 0.579, the relative viability ([9]; first compound 0.002 µM) was 0.305 and the relative viability ([9]; first compound 0.006325 µM) was 0.14. The relative viability ([9]; first compound 0.02 µM) was 0.109, the relative viability ([10]; first compound 0.0002 µM) was 0.532 and the relative viability ([10]; first compound 0.000632 µM) was 0.467. It also gave a relative viability ([10]; first compound 0.002 µM) of 0.41, a relative viability ([10]; first compound 0.006325 µM) of 0.374 and a relative viability ([10]; first compound 0.02 µM) of 0.237. It also gave a relative viability ([11]; first compound 0.0002 µM) of 0.183, a relative viability ([11]; first compound 0.000632 µM) of 0.11 and a relative viability ([11]; first compound 0.002 µM) of 0.0755. The relative viability ([11]; first compound 0.006325 µM) was 0.0696, the relative viability ([11]; first compound 0.02 µM) was 0.064 and the relative viability ([12]; first compound 0.0002 µM) was 0.937. It also gave a relative viability ([12]; first compound 0.000632 µM) of 0.754, a relative viability ([12]; first compound 0.006325 µM) of 0.128 and a relative viability ([12]; first compound 0.02 µM) of 0.0823. The relative viability ([13]; first compound 0.0002 µM) was 0.453, the relative viability ([13]; first compound 0.000632 µM) was 0.366 and the relative viability ([13]; first compound 0.002 µM) was 0.132. For the same molecule, the relative viability ([13]; first compound 0.006325 µM) was 0.117 and the relative viability ([13]; first compound 0.02 µM) was 0.0671.
